Data as given in paper PMC10251482, “Cyanomethyl Vinyl Ethers Against Naegleria fowleri” (ACS Chemical Neuroscience, 2023).
Where two headings read alike, the source gives them in different places.

Assays:
[1] = test system: N. fowleri ATCC 30808 trophozoites; experiment: In vitro activity against trophozoite stage (alamarBlue), strain ATCC 30808; format: cell-based, Naegleria fowleri; conditions: for S.I. ATCC 30808 (selectivity index CC50/IC50): CC50 murine macrophages / IC50 N. fowleri ATCC 30808; for IC50 / IC90: Naegleria fowleri, ATCC30808, trophozoites, alamarBlue, 48 h incubation
[2] = test system: N. fowleri ATCC 30215 trophozoites; experiment: In vitro activity against trophozoite stage (alamarBlue), strain ATCC 30215; format: cell-based; conditions: Naegleria fowleri, ATCC30215, 48 h incubation
[3] = In vitro cytotoxicity against murine macrophages (alamarBlue); format: cell-based; conditions: mouse
Protocol: (§1) For cytotoxicity assays, a murine cell line macrophage J774A.1 (ATCC TIB-67) was used, maintained in the Dulbecco’s modified Eagle’s medium (DMEM, w/v) supplemented with 10% (v/v) FBS and 10 μg/mL gentamicin (Sigma-Aldrich, Madrid, Spain), incubated at 37 °C in a 5% CO2 atmosphere.
(§2) In this assay, a murine macrophage cell line J774A.1 (ATCC TIB-67) was used. Serial dilutions of the compounds were added and, subsequently, the alamarBlue reagent as described in previous studies[51] was also placed. Once the plates were read on the EnSpire Multimode Plate Reader (PerkinElmer, Madrid, Spain), the data were analyzed to obtain the cytotoxic concentration 50 (CC50). This CC50, together with the activity, was used to obtain the selectivity index for N. fowleri.

[4] = test system: murine macrophage cell line J774A.1 (ATCC TIB-67); experiment: as above; format: cell-based; conditions: mouse
Protocol: as §1, §2

[5] = test system: N. fowleri ATCC 30808 cysts; experiment: In vitro activity against cyst stage (alamarBlue); format: cell-based; conditions: Naegleria fowleri, ATCC30808, read 24 h after adding reagent, read-out: Cysticidal activity, N. fowleri ATCC 30808 IC50
[6] = test system: N. fowleri ATCC 30808 trophozoites; experiment: Chromatin condensation assay (Hoechst 33342/PI double stain); format: cell-based, Naegleria fowleri; conditions: 24 h incubation with IC90
Protocol: (§3) To evaluate the mechanisms of action of the compounds at the cellular level, a series of commercial kits were used according to the manufacturer’s instructions. To carry out the assays, the N. fowleri ATCC 30808 culture was previously incubated with the IC90 of the compounds evaluated for 24 h. Nontreated N. fowleri trophozoites were used as a negative control. […] Five images were processed each time at 40x and 100x objective lenses.
A double-stain apoptosis detection kit (Hoechst 33342/PI) (Life Technologies, Madrid, Spain) was used to evaluate DNA condensation based on the fluorescent detection for chromatin compaction in apoptotic cells, and the assay offers a rapid and convenient apoptosis detection. As soon as the amoebae have been incubated for 24 h with the active compound’s IC90, Hoechst and propidium iodide (PI) are added at a final concentration of 5 and 1 μg/mL, respectively. Fluorescence should be observed after 15 min of incubation in the dark. In apoptotic cells, Hoechst 33342, a dye for blue fluorescence, stains the condensed chromatin more intensely than that in normal cells. PI emits red fluorescence (maximum excitation and emission wavelengths when bound to DNA of 535 and 617 nm, respectively), which can only be emitted through dead cells.

[7] = test system: N. fowleri ATCC 30808 trophozoites; experiment: Mitochondrial membrane potential disruption (JC-1); format: cell-based, Naegleria fowleri; conditions: 24 h incubation with IC90
Protocol: as §3
To determine the potential of the mitochondrial membrane was use the dye JC-1 (1,1′,3,3′-tetraethyl-5,5′,6,6′-tetrachloroimidacarbocyanine iodide) (Cayman Chemicals Vitro SA, Madrid, España). Once the amoebae were incubated for 24 h with the IC90 of the active compounds, 10 μL of JC-1 was added. […] The reagent fluoresces at two different wavelengths depending on the membrane potential. Under normal conditions, the monomers bind together to form J-aggregates (dimers) emitting red fluorescence at 595 nm.

[8] = test system: N. fowleri ATCC 30808 trophozoites; experiment: ATP levels (CellTiter-Glo Luminescent Cell Viability Assay); format: cell-based, Naegleria fowleri; conditions: 24 h incubation with IC90
Protocol: To evaluate the mechanisms of action of the compounds at the cellular level, a series of commercial kits were used according to the manufacturer's instructions. To carry out the assays, the N. fowleri ATCC 30808 culture was previously incubated with the IC90 of the compounds evaluated for 24 h. Nontreated N. fowleri trophozoites were used as a negative control. […] Five images were processed each time at 40x and 100x objective lenses. In order to measure the amount of ATP produced, Cell […]-GLO Luminescent Cell Viability assay (Promega Biotech Ibérica, Madrid, Spain) was used. With this kit, it is possible to compare the ATP production of treated cells to that of nontreated (negative control). ATP levels were evaluated by luminescent analysis using an EnSpire Multimode Plate Reader (Perkin Elmer, Madrid, Spain) following incubation with IC90 of selected compounds at 37 °C for 24 h.

[9] = test system: N. fowleri ATCC 30808 trophozoites; format: cell-based, Naegleria fowleri; conditions: not told
Protocol: as §3
The permeability of the plasma membrane can be analyzed using a green fluorescent dye called SYTOX Green (Life Technologies, Madrid, Spain). After the amoebae are incubated for 24 h with the IC90 of cyanomethyl vinyl ethers, SYTOX Green was added to a final concentration of 1 μM and after 15 min of incubation, cells were observed using Discover Echo Inc. Revolution Microscope (Discover Echo, San Diego, CA). The plasma membrane of the damaged cells will become permeable, giving the reagent the ability to enter through it. When inside the cell, it binds to the DNA and increases its fluorescence more than 500-fold, emitting green fluorescence at 523 nm.

[10] = test system: N. fowleri ATCC 30808 trophozoites; experiment: Oxidative stress / ROS detection (CellROX Deep Red); format: cell-based, Naegleria fowleri; conditions: 24 h incubation with IC90
Protocol: To evaluate the mechanisms of action of the compounds at the cellular level, a series of commercial kits were used according to the manufacturer’s instructions. To carry out the assays, the N. fowleri ATCC 30808 culture was previously incubated with the IC90 of the compounds evaluated for 24 h. Nontreated N. fowleri trophozoites were used as a negative control. […] Five images were processed each time at 40x and 100x objective lenses. In this assay, the oxidative stress produced in the pathogen by the generation of oxygen free radicals is evaluated. The CellROX Deep Red kit (Invitrogen, Thermo Fisher Scientific, Madrid, Spain) was used in amoebae incubated for 24 h with the IC90 of the compounds to be tested. The reagent was used at a final concentration of 5 μM and incubated for 30 min. After this time, the action of the reagent was observed using the Discover Echo Inc. Revolution Microscope (Discover Echo, San Diego, CA). As a result of the overproduction of reactive oxygen species (ROS), this dye has the ability to penetrate the cells and emit red fluorescence at a wavelength of ∼644/665 nm.

[11] = test system: N. fowleri ATCC 30808 trophozoites; experiment: Actin filament depolymerization (phalloidin-TRITC); format: cell-based, Naegleria fowleri; conditions: 24 h incubation with IC90, Z-stack imaging
Protocol: To evaluate the mechanisms of action of the compounds at the cellular level, a series of commercial kits were used according to the manufacturer’s instructions. To carry out the assays, the N. fowleri ATCC 30808 culture was previously incubated with the IC90 of the compounds evaluated for 24 h. Nontreated N. fowleri trophozoites were used as a negative control. […] Five images were processed each time at 40x and 100x objective lenses. The disassembly of cytoskeleton in treated amoebae can be analyzed by the red fluorescence emitted by phalloidin-TRITC when it binds to actin filaments. On the other hand, DAPI reagent was used which, in turn, binds to DNA and emits blue fluorescence, as already described in Acanthamoeba genus.[52] In this assay, amoebae were incubated with the IC90 of compounds. A 24-h incubation period was followed by the fixation of the cells with formaldehyde on a coverslip and the addition of 0.1% Triton before the addition of phalloidin-tetramethylrhodamine B isothiocyanate (phalloidin-TRITC; Sigma-Aldrich, Madrid, Spain) for another 30-min period. Finally, after incubation, the sample was washed with PBS. Cells were examined by Z-stack with a 100x objective of the EVOS FL Cell Imaging System AMF4300 (Life Technologies, Madrid, Spain).

[12] = J774A.1 macrophage cell line (ATCC TIB-67), alamarBlue, read-out: Murine macrophages J774.A1 CC50
[13] = Murine macrophages J774.A1 CC50

Row | SMILES | S.I. ATCC 30808 (selectivity index CC50/IC50) [1] | IC50 [1] [µM] | IC90 [1] [µM] | IC50 [2] [µM] | CC50 [3, 12] [µM] | CC50 [3, 13] [µM] | CC50 [4] [µM] | IC50 [5] [µM] | Chromatin condensation (Hoechst 33342 blue fluorescence) [6] | Mitochondrial membrane potential (JC-1 fluorescence) [7] | Decrease in ATP levels compared to the negative control [8] [%] | Plasma membrane permeability (SYTOX Green fluorescence) [9] | Intracellular ROS generation (CellROX Deep Red fluorescence) [10] | Actin filaments (phalloidin-TRITC fluorescence) [11] | Propidium iodide red fluorescence [6]
1 | C[C@@H]1[C@H](O)[C@@H](C)/C=C/C=C/C=C/C=C/C=C/C=C/C=C/[C@H](O[C@@H]2O[C@H](C)[C@@H](O)[C@H](N)[C@@H]2O)C[C@@H]2O[C@](O)(C[C@@H](O)C[C@@H](O)[C@H](O)CC[C@@H](O)C[C@@H](O)CC(=O)O[C@H]1C)C[C@H](O)[C@H]2C(=O)O [Amphotericin B, reference compound] | ≥1652.89 | 0.12 ± 0.03 | 0.35 ± 0.02 | 0.16 ± 0.02 | ≥ 200 | – | – | – | – | – | – | – | – | – | –
2 | CCCCCCCCCCCCCCCCOP(=O)([O-])OCC[N+](C)(C)C [Miltefosine, miltefosine, reference compound] | 3.30 | 38.7 ± 4.23 | 89.5 ± 17.4 | 81.6 ± 7.23 | 128 ± 8.85 | – | – | – | – | – | – | – | – | – | –
3 | COC(=O)/C=C/OC(C#N)c1ccccc1 (centres unmarked) [QOET-51] | 14.23 | 49.9 ± 3.04 | 173 ± 17.2 | 68.5 ± 2.16 | – | 709 ± 67.1 | – | – | – | – | – | – | – | – | –
4 | COC(=O)/C=C/OC(C#N)c1ccc(C)cc1 (centres unmarked) [QOET-59] | >20 | 42.3 ± 6.44 | 77.2 ± 11.8 | 44.5 ± 0.48 | – | > 800 | > 865 | 93.6 ± 17.5 | condensation was observed | disruption in the mitochondrial membrane potential | 98.49 | show green fluorescence | increase of the intracellular ROS generation | bright red fluorescence region related to actin depolymerization | –
5 | COC(=O)/C=C\OC(C#N)c1ccc(C(F)(F)F)cc1 (centres unmarked) [QOET-64] | >9 | 38.8 ± 2.13 | 83.4 ± 9.47 | 48.9 ± 0.81 | – | > 351 | – | – | – | – | – | – | – | – | –
6 | COC(=O)/C=C/OC(C#N)c1cc(OC)c(OC)c(OC)c1 (centres unmarked) [QOET-67] | >6 | 48.3 ± 10.5 | 154 ± 15.3 | 121 ± 20.7 | – | > 325 | – | – | – | – | – | – | – | – | –
7 | COC(=O)/C=C\OC(C#N)c1ccc(C)c(C)c1 (centres unmarked) [QOET-72] | >7 | 47.7 ± 4.1 | 185 ± 7.05 | 50.1 ± 4.9 | – | > 408 | – | 130 ± 22.8 | condensation was observed | disruption in the mitochondrial membrane potential | 90.25 | show green fluorescence | increase of the intracellular ROS generation | bright red fluorescence region related to actin depolymerization | –
8 | COC(=O)/C=C/OC(C#N)c1ccccc1C (centres unmarked) [QOET-77] | >10 | 39.2 ± 6.3 | 117 ± 26.1 | 42.7 ± 8.5 | – | > 394 | – | 102 ± 7.01 | condensation was observed | disruption in the mitochondrial membrane potential | 86.28 | show green fluorescence | increase of the intracellular ROS generation | only low red fluorescence was detected | late apoptosis phase
9 | COC(=O)/C=C/OC(C#N)c1ccc(F)cc1 (centres unmarked) [QOET-79] | >10 | 43.3 ± 5.69 | 119 ± 26 | 54.3 ± 7.4 | – | > 425 | – | – | – | – | – | – | – | – | –
